Measurements from patent EP0224257A1, “Stabilized benzimidazole derivatives” (SYNTEX (U.S.A.) INC., priority 1985, dated 1987).

Test: Blood plasma levels after oral administration to dogs
Type: in vivo
Conditions: 10 mg/kg, compared with oxfendazole in commercially available form
Protocol: Dogs were administered orally either amorphous or crystalline oxfendazole at a dose of 10 mg/kg.
Blood samples were drawn and analyzed before administration and on days 1, 2, 3, 7, 10 and 13 following administration. The area under the curve was calculated for plasma concentration vs time profile.

plasma level of oxfendazole: higher plasma level
Structure (SMILES): COC(=O)Nc1nc2ccc([S+]([O-])c3ccccc3)cc2[nH]1 (stereo not shown) [amorphous oxfendazole, methyl 5-(phenylsulfinyl)-1H-benzimidazol-2-yl carbamate]
